Here are results for 6 molecules from patent US11203577B2, “Sulfonyl-structure-containing triazinone derivatives, their preparation methods and their uses in insect killing and/or bacterium killing” (Nankai University, priority 2017, dated 2021).

The subject of one data set is Cucumber fusarium wilt. In words: In vitro fungicidal activity, PDA colony diameter. Type of data set: cell-based. The settings on record: 96 h, read-out: Fungicidal activity (%) Cucumber fusarium wilt.
The subject of data set [1] is mosquito larvae (Culer pipiens pallens). In words: Test of insecticidal activity against mosquito larvae (checked after 24 h). The settings on record: 24 h, read-out: Mortalities (%) against mosquito larvae.
The test system of a further data set is Potato late blight. Put plainly: microbe, parasite or virus in culture. It counts as cell-based. Particulars: Phytophthora infestans, 96 h, read-out: Fungicidal activity (%) Potato late blight.
The subject of a further data set is Wheat head blight. Put plainly: whole plant or invertebrate. Type of data set: cell-based. The settings on record: Triticum aestivum, read-out: Fungicidal activity (%) Wheat head blight.
Data set [2] relates to Corn southern leaf blight. In words: In vitro fungicidal activity, PDA colony diameter. Type of data set: cell-based. Particulars: read-out: Fungicidal activity (%) Corn southern leaf blight.
For another data set, the system named is Maize borers. In words: Test of insecticidal activity against maize borers (leaf immersion). Particulars: read-out: Mortalities (%) Maize borers.
The test system of data set [3] is Capsicum phytophthora blight. Put plainly: In vitro fungicidal activity, PDA colony diameter. Type of data set: cell-based. Particulars: 96 h. In a few lines: (§1)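 Mycelial plugs cut from the edge of 7-day PDA colonies placed on PDA containing 50 mg/kg compound or on compound-free PDA, grown 4 days. Colony diameters measured; percent inhibition calculated against untreated control.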

The next data set deals with Apple ring rot. Put plainly: In vitro fungicidal activity, PDA colony diameter. It counts as cell-based. Particulars: inhibition of colony diameter. In a few lines: as §1
Data set [4] deals with Cercospora brown spot of peanut. In words: In vitro fungicidal activity, PDA colony diameter. It counts as cell-based. Particulars: 96 h, read-out: Fungicidal activity (%) Cercospora brown spot of peanut.
Another data set concerns Watermelon anthracnose. Put plainly: In vitro fungicidal activity, PDA colony diameter. It counts as cell-based. The settings on record: read-out: Fungicidal activity (%) Watermelon anthracnose.
For a further data set, the system named is Cotton bollworms. In words: Test of insecticidal activity against cotton bollworms (pesticide mixed into feedstuff). Particulars: read-out: Mortalities (%) Cotton bollworms.
Another data set has as its system Rice bakanae disease. Put plainly: In vitro fungicidal activity, PDA colony diameter. It counts as cell-based. The settings on record: read-out: Fungicidal activity (%) Rice bakanae disease.
Another data set concerns Tomato early blight. Put plainly: In vitro fungicidal activity, PDA colony diameter. It counts as cell-based, Alternaria solani. Particulars: read-out: Fungicidal activity (%) Tomato early blight.
The next data set has as its system Sclerotinia rot of colza. Put plainly: In vitro fungicidal activity, PDA colony diameter. Type of data set: cell-based. Particulars: 96 h, read-out: Fungicidal activity (%) Sclerotinia rot of colza.
Another data set relates to Wheat sheath blight. In words: In vitro fungicidal activity, PDA colony diameter. The settings on record: read-out: Fungicidal activity (%) Wheat sheath blight. Type of data set: cell-based.
A further data set concerns Armyworms. Put plainly: Test of insecticidal activity against armyworms (leaf immersion). The settings on record: 600 mg/kg, 3-4 days.
Data set [5] concerns bean aphides (Aphis laburni Kaltenbach). Put plainly: Test of insecticidal activity against aphides (leaf immersion, checked after 96 h). The settings on record: Aphis, 96 h, read-out: Mortalities (%) against aphides.
Procedure: The insecticidal activity against aphides is tested through the following steps: the tested aphides are bean aphides (Aphis laburni Kaltenbach), a normal colony fed with broad bean leaves in a laboratory. The pesticide is weighed, 1 mL DMF is added to dissolve the pesticide, then two drops of emulsifier, Tween-20 are added, and distilled water is added in an appropriate amount; the mixture is stirred to a homogeneous state to prepare pesticide solution at required concentration (see the following table for the specific concentration). […] In a control group, only emulsifier and solvent are added into distilled water, and the mixture is stirred to a homogeneous state.
Another data set has as its system Rice sheath blight. Put plainly: In vitro fungicidal activity, PDA colony diameter. It counts as cell-based. The settings on record: read-out: Fungicidal activity (%) Rice sheath blight.
The mark [6] stands for this setting: 50 mg/kg, inhibition of colony diameter.

Like-named read-outs stand apart in the source and are kept apart here.

Procedure for Cotton bollworms: Method of testing against cotton bollworms: the pesticide is mixed into the feedstuff, i.e., 3 mL prepared solution is added into about 27 g freshly prepared feedstuff; thus, required concentration is obtained by diluting by 10 times.

`CCCS(=O)(=O)N(N1CC(C)=NNC1=O)S(=O)(=O)CCC` [Ib-3, N-(6-methyl-3-oxo-2,3-dihydro-1,2,4-triazin-4(5H)-yl)-N-(n-propylsulfonyl)propyl-1-sulfonamide]: the inhibition of growth at 50 mg/kg in the data set with Cucumber fusarium wilt (setting [6]) is 0%; with Potato late blight it was 22.2%; in data set [3], 26.5%; in data set [4] (setting [6]), 15.8%; in the data set on Sclerotinia rot of colza (setting [6]), 40%. Besides, in data set [1], the mortality at 10 mg/kg came out at 25%. For the same molecule, the inhibition at 50 mg/kg is 10% with Wheat head blight; 20.8% in [2] (setting [6]); 17.2% in the data set on Apple ring rot; 25% in the data set with Watermelon anthracnose (setting [6]); 38.9% with Rice bakanae disease (setting [6]); 0% in the data set on Tomato early blight (setting [6]). The inhibition at 50 mg/kg with Wheat sheath blight (setting [6]) came out at 52.3%; in the data set with Rice sheath blight (setting [6]), 38.1%. Besides, the mortality at 600 mg/kg in the data set on Maize borers turned out to be 10%; with Cotton bollworms, 5%; in data set [5], 75%. Further, the “Mortalities (%) Armyworms” value with Armyworms worked out at 10%.
On to `CCCCS(=O)(=O)N(N1CC(C)=NNC1=O)S(=O)(=O)CCCC` [Ib-4, N-(n-butylsulfonyl)-N-(6-methyl-3-oxo-2,3-dihydro-1,2,4-triazin-4(5H)-yl)-butyl-1-sulfonamide], for which the inhibition of growth at 50 mg/kg in the data set on Cucumber fusarium wilt (setting [6]) came to 20%; with Potato late blight, 33.3%; in data set [3], 34.7%; in data set [4] (setting [6]) it was 15.8%; with Sclerotinia rot of colza (setting [6]), 43.3%. Besides, the mortality at 10 mg/kg in [1] was 75%. For the same molecule, the inhibition at 50 mg/kg in the data set on Wheat head blight was found to be 3.3%; in data set [2] (setting [6]), 20.8%; with Apple ring rot it was 27.6%; with Watermelon anthracnose (setting [6]), 29.2%; in the data set on Rice bakanae disease (setting [6]), 50%; in the data set with Tomato early blight (setting [6]), 19%. The inhibition at 50 mg/kg in the data set on Wheat sheath blight (setting [6]) was 65.5%; in the data set on Rice sheath blight (setting [6]), 27%. Also, the mortality at 600 mg/kg with Maize borers turned out to be 10%; in the data set with Cotton bollworms, 45%; in data set [5] it was 90%. Besides, the “Mortalities (%) Armyworms” value in the data set on Armyworms stood at 15%.
As to `CC1=NNC(=O)N(N(S(=O)(=O)c2ccc(C)cc2)S(=O)(=O)c2ccc(C)cc2)C1` [Ib-6, 4-methyl-N-(6-methyl-3-oxo-2,3-dihydro-1,2,4-triazin-4(5H)-yl)-N-(4-methylbenzenesulfonyl)benzenesulfonamide], the inhibition of growth at 50 mg/kg was determined as 0% in the data set with Cucumber fusarium wilt (setting [6]); 22.2% in the data set on Potato late blight; 26.5% in data set [3]; 15.8% in [4] (setting [6]); 15% in the data set on Sclerotinia rot of colza (setting [6]). Also, the mortality at 10 mg/kg in data set [1] came out at 35%; in data set [5], 30%. Moreover, the inhibition at 50 mg/kg worked out at 13.3% in the data set with Wheat head blight; 16.7% in data set [2] (setting [6]); 27.6% in the data set with Apple ring rot; 29.2% in the data set on Watermelon anthracnose (setting [6]); 22.2% in the data set with Rice bakanae disease; 23.8% in the data set on Tomato early blight (setting [6]). Moreover, the values for the inhibition at 50 mg/kg in the data set on Wheat sheath blight (setting [6]) and in the data set on Rice sheath blight (setting [6]) were 56.8% and 50.8%, respectively. In addition, the mortality at 600 mg/kg with Maize borers is 15%; in the data set on Cotton bollworms, 15%; in data set [5] it was 100%. Also, in the data set with Armyworms, the “Mortalities (%) Armyworms” value is 15%. The mortality at 100 mg/kg in data set [5] was 80%.
In the case of `CC1=NNC(=O)N(N(S(=O)(=O)c2ccc([N+](=O)[O-])cc2)S(=O)(=O)c2ccc([N+](=O)[O-])cc2)C1` [Ib-7, N-(6-methyl-3-oxo-2,3-dihydro-1,2,4-triazin-4(5H)-yl)-4-nitro-N-(4-nitrobenzenesulfonyl)-benzenesulfonamide], the inhibition of growth at 50 mg/kg in the data set with Cucumber fusarium wilt came out at 5%; in the data set on Potato late blight it was 25.9%; in [3], 36.7%; in data set [4] it was 21.1%; in the data set on Sclerotinia rot of colza, 30%. Further, the mortality at 10 mg/kg in data set [1] amounted to 60%; in [5], 25%. Also, the inhibition at 50 mg/kg with Wheat head blight stood at 23.3%; in data set [2] it was 12.5%; in the data set on Apple ring rot, 0%; with Watermelon anthracnose, 20.8%; with Rice bakanae disease, 44.4%; in the data set with Tomato early blight, 23.8%. In addition, the results for the inhibition at 50 mg/kg in the data set with Wheat sheath blight and with Rice sheath blight were 59.1% and 27%, respectively. Besides, the mortality at 600 mg/kg in the data set with Maize borers stood at 15%; with Cotton bollworms, 40%; in [5], 100%. Besides, the “Mortalities (%) Armyworms” value in the data set with Armyworms was 20%. Moreover, the mortality at 100 mg/kg in data set [5] stood at 85%.
On to `CC(=O)Nc1ccc(S(=O)(=O)N(N2CC(C)=NNC2=O)S(=O)(=O)c2ccc(NC(C)=O)cc2)cc1` [Ib-8, 4-acetamido-N-(6-methyl-3-oxo-2,3-dihydro-1,2,4-triazin-4(5H)-yl)-N-(4-acetamidobenzenesulfonyl)-benzenesulfonamide], for which the inhibition of growth at 50 mg/kg with Cucumber fusarium wilt (setting [6]) stood at 0%; in the data set with Potato late blight, 29.6%; in [3], 20.4%; in data set [4] (setting [6]), 15.8%; with Sclerotinia rot of colza (setting [6]), 33.3%. Besides, the mortality at 10 mg/kg in data set [1] turned out to be 30%. Moreover, the inhibition at 50 mg/kg was found to be 0% with Wheat head blight; 16.7% in data set [2] (setting [6]); 27.6% with Apple ring rot; 12.5% in the data set on Watermelon anthracnose (setting [6]); 22.2% in the data set on Rice bakanae disease (setting [6]); 23.8% in the data set on Tomato early blight (setting [6]). Moreover, the figures for the inhibition at 50 mg/kg in the data set on Wheat sheath blight (setting [6]) and in the data set on Rice sheath blight (setting [6]) were 45.5% and 27%, respectively. Besides, the mortality at 600 mg/kg was 15% with Maize borers, 15% in the data set on Cotton bollworms and 90% in data set [5]. Besides, in the data set on Armyworms, the “Mortalities (%) Armyworms” value came to 20%. The mortality at 100 mg/kg in [5] turned out to be 50%.
As to `CC1=NNC(=O)N(N(S(=O)(=O)c2cccnc2)S(=O)(=O)c2cccnc2)C1` [Ib-9, N-(6-methyl-3-oxo-2,3-dihydro-1,2,4-triazin-4(5H)-yl)-N-(pyrid-3-yl-sulfonyl)pyridyl-3-sulfonamide], the inhibition of growth at 50 mg/kg in the data set with Cucumber fusarium wilt (setting [6]) was determined as 7.7%; with Potato late blight, 14.3%; in data set [3] it was 11.5%; in data set [4] (setting [6]), 19.2%; in the data set with Sclerotinia rot of colza (setting [6]), 12.5%. In addition, the mortality at 10 mg/kg in data set [1] turned out to be 10%; in data set [5], 20%. The inhibition at 50 mg/kg was found to be 21.2% with Wheat head blight; 5.6% in data set [2] (setting [6]); 21.4% with Apple ring rot; 3.1% in the data set with Watermelon anthracnose (setting [6]); 0% in the data set with Rice bakanae disease (setting [6]); 25% with Tomato early blight (setting [6]). For the same molecule, the inhibition at 50 mg/kg came out at 15.1% with Wheat sheath blight (setting [6]) and 26.8% in the data set with Rice sheath blight (setting [6]). For the same molecule, the mortality at 600 mg/kg in the data set with Maize borers was 10%; in the data set with Cotton bollworms, 5%; in data set [5], 95%. Further, the “Mortalities (%) Armyworms” value in the data set on Armyworms stood at 15%. For the same molecule, the mortality at 100 mg/kg in data set [5] turned out to be 80%.
